{"source": "paper PMC2593151", "about": "(Bioorganic & medicinal chemistry letters, 2008)", "key": {"LuxR [1]": {"molecular_target": "T1, LuxR (Aliivibrio fischeri, UniProt P35327)", "T1 sequence (P35327 whole entry)": "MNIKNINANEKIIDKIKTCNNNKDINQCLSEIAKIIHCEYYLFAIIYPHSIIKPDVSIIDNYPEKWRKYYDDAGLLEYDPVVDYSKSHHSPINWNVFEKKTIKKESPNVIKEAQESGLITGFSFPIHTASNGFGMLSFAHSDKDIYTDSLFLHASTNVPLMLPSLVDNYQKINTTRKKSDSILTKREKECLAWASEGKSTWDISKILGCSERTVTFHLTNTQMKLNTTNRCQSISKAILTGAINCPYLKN", "experiment": "LuxR agonism reporter assay", "assay_type": "cell-based, Vibrio fischeri"}, "LasR [2]": {"molecular_target": "T2, LasR (Pseudomonas aeruginosa, UniProt P25084)", "T2 sequence (P25084 whole entry)": "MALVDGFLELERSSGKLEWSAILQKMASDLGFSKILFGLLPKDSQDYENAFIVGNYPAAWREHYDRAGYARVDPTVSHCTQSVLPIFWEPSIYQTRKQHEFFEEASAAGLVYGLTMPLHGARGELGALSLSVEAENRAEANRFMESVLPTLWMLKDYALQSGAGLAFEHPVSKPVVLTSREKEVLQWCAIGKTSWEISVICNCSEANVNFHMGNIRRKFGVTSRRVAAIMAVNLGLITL", "experiment": "LasR agonism reporter gene assay, E. coli DH5α", "assay_type": "cell-based"}, "TraR [3]": {"molecular_target": "T3, TraR (Agrobacterium tumefaciens, UniProt P33905)", "T3 sequence (P33905 whole entry)": "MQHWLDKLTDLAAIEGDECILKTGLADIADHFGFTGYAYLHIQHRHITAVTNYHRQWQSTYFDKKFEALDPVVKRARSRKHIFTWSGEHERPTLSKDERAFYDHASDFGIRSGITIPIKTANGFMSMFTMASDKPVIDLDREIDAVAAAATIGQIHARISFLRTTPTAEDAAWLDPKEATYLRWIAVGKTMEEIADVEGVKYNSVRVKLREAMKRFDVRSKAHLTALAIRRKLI", "experiment": "TraR antagonism reporter gene assay", "assay_type": "cell-based"}, "LuxR [4]": {"molecular_target": "T1, LuxR", "experiment": "LuxR antagonism reporter assay", "assay_type": "cell-based, Vibrio fischeri"}, "LuxR [5]": {"molecular_target": "T1, LuxR", "details": "cited from earlier work"}, "LasR [6]": {"molecular_target": "T2, LasR", "details": "read-out: EC50 E. coli LasR; controls; compound alone; ref 5a; cited from earlier work"}, "LasR [7]": {"molecular_target": "T2, LasR", "details": "shown previously; cited from earlier work"}, "TraR [8]": {"molecular_target": "T3, TraR", "details": "shown previously; cited from earlier work"}, "LuxR [9]": {"molecular_target": "T1, LuxR", "details": "shown previously; cited from earlier work"}}, "note": "Like-named read-outs stand apart in the source and are kept apart here."}
{"smiles": "O=C(Cc1cccc(C(F)(F)F)c1)N[C@H]1CCOC1=O", "note": "[E3, 3-CF3 PHL]", "values": [{"measurement": "LuxR activation (in words)", "setting": "LuxR [1]; Library E", "value": "failed to activate LuxR"}]}
{"smiles": "N#Cc1cccc(CC(=O)N[C@H]2CCOC2=O)c1", "note": "[E5, 3-CN PHL]", "values": [{"measurement": "EC50", "setting": "LuxR [1]", "value": 300, "unit": "nM"}]}
{"smiles": "O=C(Cc1ccc(SC(F)(F)F)cc1)N[C@H]1CCOC1=O", "note": "[E8, 4-SCF3 PHL]", "values": [{"measurement": "EC50", "setting": "LasR [2]", "value": 3400, "unit": "nM"}]}
{"smiles": "O=C(Cc1cc(C(F)(F)F)cc(C(F)(F)F)c1)N[C@H]1CCOC1=O", "note": "[E9, 3,5-CF3 PHL]", "values": [{"measurement": "EC50", "setting": "LuxR [1]", "value": 370, "unit": "nM"}]}
{"smiles": "O=C(COc1ccc([N+](=O)[O-])cc1)N[C@H]1CCOC1=O", "note": "[E24, 4-NO2 POHL]", "values": [{"measurement": "IC50", "setting": "TraR [3]", "value": "~250", "unit": "nM"}]}
{"smiles": "O=C(CCc1cccc(Br)c1)N[C@H]1CCOC1=O", "note": "[E31, 3-Br PPHL]", "values": [{"measurement": "IC50", "setting": "LuxR [4]", "value": "~470", "unit": "nM"}]}
{"smiles": "O=C(CCc1ccc(I)cc1)N[C@H]1CCOC1=O", "note": "[E32]", "values": [{"measurement": "EC50", "setting": "LasR [2]", "value": "> 10000", "unit": "nM"}]}
{"smiles": "O=C(CCc1cccc(I)c1)N[C@H]1CCOC1=O", "note": "[E33, 3-I PPHL]", "values": [{"measurement": "IC50", "setting": "LuxR [4]", "value": "~470", "unit": "nM"}]}
{"smiles": "O=C(CCc1ccc(C(F)(F)F)cc1)N[C@H]1CCOC1=O", "note": "[E35, 4-CF3 PHHL]", "values": [{"measurement": "EC50", "setting": "LasR [2]", "value": "> 10000", "unit": "nM"}, {"measurement": "IC50", "setting": "TraR [3]", "value": "~250", "unit": "nM"}]}
{"smiles": "O=C(CCc1cccc(C(F)(F)F)c1)N[C@H]1CCOC1=O", "note": "[E36, 3-CF3 PPHL]", "values": [{"measurement": "IC50", "setting": "LuxR [4]", "value": "~470", "unit": "nM"}]}
{"smiles": "O=C(CCc1ccc2c(c1)OCO2)N[C@H]1CCOC1=O", "note": "[E39]", "values": [{"measurement": "EC50", "setting": "LasR [2]", "value": "> 10000", "unit": "nM"}]}
{"smiles": "O=C(Cc1cccc([N+](=O)[O-])c1)N[C@H]1CCOC1=O", "note": "[compound 4, 3-NO2 PHL]", "values": [{"measurement": "LuxR activation threshold level", "setting": "LuxR [5]; previously reported LuxR activator", "value": "~ 100%"}, {"measurement": "EC50", "setting": "LuxR [5]; read-out: EC50 V. fischeri LuxR, controls, compound alone, ref 5a", "value": 350, "unit": "nM"}]}
{"smiles": "O=C(COc1ccc(OC(F)(F)F)cc1)N[C@H]1CCOC1=O", "note": "[compound 6, 4-OCF3 POHL]", "values": [{"measurement": "EC50", "setting": "LasR [6]", "value": 6300, "unit": "nM"}, {"measurement": "LasR inhibition (in words)", "setting": "LasR [7]", "value": "moderate"}, {"measurement": "TraR inhibition (in words)", "setting": "TraR [8]", "value": "strong"}]}
{"smiles": "O=C(CCc1ccccc1)NC1CCOC1=O", "note": "(centres unmarked) [compound 7, non-substituted PPHL]", "values": [{"measurement": "LuxR inhibition (in words)", "setting": "LuxR [9]", "value": "minimal activity"}, {"measurement": "LasR inhibition (in words)", "setting": "LasR [7]", "value": "minimal activity"}, {"measurement": "TraR inhibition (in words)", "setting": "TraR [8]", "value": "minimal activity"}]}
{"smiles": "O=C(CCc1ccc(Br)cc1)N[C@H]1CCOC1=O", "note": "[compound 8, 4-bromo PPHL]", "values": [{"measurement": "LuxR inhibition (in words)", "setting": "LuxR [9]", "value": "potent inhibitor"}, {"measurement": "LasR inhibition (in words)", "setting": "LasR [7]", "value": "potent inhibitor"}, {"measurement": "TraR inhibition (in words)", "setting": "TraR [8]", "value": "potent inhibitor"}]}
